This note sets out measurements from patent US20160137639A1, “TRIAZOLE-ISOXAZOLE COMPOUND AND MEDICAL USE THEREOF” (JAPAN TOBACCO INC., priority 2012, published 2016).

One assay addresses T1, human RORγ (Homo sapiens, UniProt P51449).
T1 construct: human, NM_005060.3 and from Ser253 to Lys518; expressed in transfected cells; host or cells: CHO cells (transient co-transfection with pG5-Luc reporter)
T1 sequence (P51449 253-518): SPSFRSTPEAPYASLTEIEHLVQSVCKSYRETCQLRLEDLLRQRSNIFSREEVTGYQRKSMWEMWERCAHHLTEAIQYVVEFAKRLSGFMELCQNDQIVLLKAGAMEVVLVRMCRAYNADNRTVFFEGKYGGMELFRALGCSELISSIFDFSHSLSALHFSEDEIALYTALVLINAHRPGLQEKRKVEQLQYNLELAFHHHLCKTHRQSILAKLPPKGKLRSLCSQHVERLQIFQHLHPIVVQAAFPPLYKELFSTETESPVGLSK
Description: Luciferase reporter gene assay of inhibitory effect against RORγ transcriptional activity (GAL4-hRORγ plasmid in CHO cells). Particulars: read-out: LUC EC50 (μM) hRORg. The assay is classed as cell-based. (In general: In a reporter assay the amount or activity of a reporter protein is the signal.)

The target of another assay is T2, mouse RORγ (Mus musculus, UniProt P51450).
T2 construct: mouse, NM_011281.2 and from Ile251 to Lys516; expressed in transfected cells; host or cells: CHO cells (transient co-transfection with pG5-Luc reporter)
T2 sequence (P51450 251-516): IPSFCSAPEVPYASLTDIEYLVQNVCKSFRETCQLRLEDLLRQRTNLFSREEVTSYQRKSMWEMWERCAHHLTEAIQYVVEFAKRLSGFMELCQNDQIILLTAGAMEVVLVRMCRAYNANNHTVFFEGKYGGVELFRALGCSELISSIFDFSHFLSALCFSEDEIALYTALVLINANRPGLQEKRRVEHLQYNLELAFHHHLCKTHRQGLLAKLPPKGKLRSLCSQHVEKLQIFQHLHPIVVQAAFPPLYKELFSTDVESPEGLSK
As to the kind of experiment: Luciferase reporter gene assay of inhibitory effect against RORγ transcriptional activity (GAL4-mRORγ plasmid in CHO cells). The assay is classed as cell-based. As to conditions: read-out: LUC EC50 (μM) mRORg. In outline: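 Readout is intracellular luciferase after 2-day compound exposure (8 concentrations, 0.1% DMSO) in CHO cells expressing GAL4 fused to mouse RORγ LBD residues Ile251–Lys516 plus pG5-Luc reporter. EC50 fitted from %-of-control; points showing resazurin-detected cytotoxicity dropped.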

`Cc1ccc(NC(=O)C[C@H](CCC(=O)O)c2noc(-c3noc(CCC(C)C)c3Cl)c2C2CC2)c(Cl)c1` [Example E-10]: the EC50 at human RORγ and at mouse RORγ was under 3 µM in each case.

Regarding `Cc1ccc(NC(=O)C[C@H](CCC(=O)O)c2noc(-c3noc(CC(C)C)n3)c2C2CC2)c(Cl)c1` [Example E-11], the EC50 on human RORγ and on mouse RORγ was under 3 µM throughout.

On to `Cc1ccc(NC(=O)C[C@H](CCC(=O)O)c2noc(-c3cc(CC(C)C)on3)c2C(F)(F)F)c(F)c1` [Example E-12], for which the EC50 (commonly the concentration giving half of the maximal effect) on human RORγ is over 3 µM; on mouse RORγ it was under 3 µM.

For `Cc1ccc(NC(=O)C[C@H](CCC(=O)O)c2noc(-c3cc(CCC(C)C)on3)c2C(F)(F)F)c(F)c1` [Example E-13], the EC50 at human RORγ is over 3 µM; at mouse RORγ, under 3 µM.

For the compound `Cc1ccc(NC(=O)C[C@H](CCC(=O)O)c2noc(-c3nnc(CC(C)C)s3)c2C2CC2)c(Cl)c1` [Example E-14], the EC50 on human RORγ and on mouse RORγ was under 3 µM throughout.

As for `Cc1ccc(NC(=O)C[C@H](CCC(=O)O)c2noc(-c3ncc(CC(C)C)s3)c2C2CC2)c(Cl)c1` [Example E-15], the EC50 at human RORγ and at mouse RORγ was under 3 µM in each case.

Turning to `Cc1ccc(NC(=O)C[C@H](CCC(=O)O)c2noc(-c3cc(CCC(C)C)on3)c2C(F)(F)F)c(Cl)c1` [Example E-16], the EC50 on human RORγ and at mouse RORγ was under 3 µM each time.

As for `Cc1ccc(NC(=O)C[C@H](CCC(=O)O)c2noc(-c3cc(C4CC(CC(C)(C)C)C4)on3)c2C2CC2)c(Cl)c1` (stereo partly shown) [Example E-17], the EC50 on human RORγ and on mouse RORγ was under 3 µM throughout.

Turning to `Cc1ccc(NC(=O)C[C@H](CCC(=O)O)c2noc(-c3ncc(CC(C)C)o3)c2C2CC2)c(Cl)c1` [Example E-18], the EC50 at human RORγ and at mouse RORγ was under 3 µM throughout.

As for `Cc1ccc(NC(=O)C[C@H](CCC(=O)O)c2noc(-c3cn(CCC(C)(C)C)nc3C(F)(F)F)c2C2CC2)c(F)c1` [Example E-19], the EC50 on human RORγ and on mouse RORγ was over 3 µM throughout.

As to `Cc1ccc(NC(=O)C[C@H](CCC(=O)O)c2noc(-c3cc(C(F)(F)C(C)C)on3)c2C2CC2)c(Cl)c1` [Example E-20], the EC50 at human RORγ and at mouse RORγ was under 3 µM each time.

Regarding `Cc1ccc(NC(=O)C[C@H](CCCC(=O)O)c2noc(-c3cc(CCC(C)C)on3)c2C2CC2)c(Cl)c1` [Example E-21], the EC50 at human RORγ and on mouse RORγ was under 3 µM each time.

In the case of `Cc1ccc(NC(=O)C[C@H](CCC(=O)O)c2noc(-c3cc(CCC(C)(C)C)on3)c2C2CC2)c(Cl)c1` [Example E-22], the EC50 at human RORγ and at mouse RORγ was under 3 µM each time.

Consider `Cc1ccc(NC(=O)C[C@H](CCC(=O)O)c2noc(-c3cc(C4(CC(C)C)CC4)on3)c2C2CC2)c(Cl)c1` [Example E-23], for which the EC50 at human RORγ and at mouse RORγ was under 3 µM each time.

Take `Cc1ccc(NC(=O)C[C@H](CCC(=O)O)c2noc(-c3cc(C4CCCC4)on3)c2C2CC2)c(Cl)c1` [Example E-24]: the EC50 on human RORγ and at mouse RORγ was under 3 µM each time.

Take `Cc1ccc(NC(=O)C[C@H](CCC(=O)O)c2noc(-c3cc(CC(C)C)nn3C)c2C2CC2)c(Cl)c1` [Example E-25]: the results for the EC50 on human RORγ and at mouse RORγ were over 3 µM and under 3 µM, respectively.

For `Cc1ccc(NC(=O)C[C@H](CCC(=O)O)c2noc(-c3cc(CC(C)C)n(C)n3)c2C2CC2)c(Cl)c1` [Example E-26], the EC50 at human RORγ and at mouse RORγ was under 3 µM in each case.

As for `Cc1ccc(NC(=O)C[C@H](CCC(=O)O)c2noc(-c3nc(C)c(CC(C)C)s3)c2C2CC2)c(Cl)c1` [Example E-27], the EC50 at human RORγ and on mouse RORγ was under 3 µM each time.

Regarding `Cc1ccc(NC(=O)C[C@H](CCC(=O)O)c2noc(-c3ccc(CC(C)C)o3)c2C2CC2)c(Cl)c1` [Example E-28], the EC50 at human RORγ and at mouse RORγ was under 3 µM each time.

Regarding `Cc1ccc(NC(=O)C[C@H](CCC(=O)O)c2noc(-c3noc(CC(C)C)c3C)c2C2CC2)c(Cl)c1` [Example E-29], the EC50 at human RORγ and at mouse RORγ was under 3 µM in each case.

For `Cc1ccc(NC(=O)C[C@H](CCC(=O)O)c2noc(-c3cc(C4CC(C)(C)C4)on3)c2C2CC2)c(Cl)c1` [Example E-30], the EC50 on human RORγ and at mouse RORγ was under 3 µM each time.

For the compound `Cc1ccc(NC(=O)C[C@H](CCC(=O)O)c2noc(-c3cc(CCC(C)(C)C)on3)c2C2CC2)c(F)c1` [Example E-31], the EC50 on human RORγ and on mouse RORγ was under 3 µM in each case.

Take `Cc1ccc(NC(=O)C[C@H](CCC(=O)O)c2noc(-c3cc(CCC(C)(C)C)on3)c2C2CC2)c(C)c1` [Example E-32]: the EC50 at human RORγ and at mouse RORγ was under 3 µM throughout.

As for `Cc1ccc(NC(=O)C[C@H](CCC(=O)O)c2noc(-c3cc(C(F)(F)CC(C)C)on3)c2C2CC2)c(Cl)c1` [Example E-33], the EC50 at human RORγ and at mouse RORγ was under 3 µM throughout.

In the case of `CC(C)(C)CCc1cc(-c2onc([C@@H](CCC(=O)O)CC(=O)Nc3ccc(F)cc3Cl)c2C2CC2)no1` [Example E-34], the EC50 at human RORγ and at mouse RORγ was under 3 µM in each case.

Turning to `Cc1ccc(NC(=O)C[C@H](CCC(=O)O)c2noc(-c3cc(C(F)(F)CC(C)(C)C)on3)c2C2CC2)c(Cl)c1` [Example E-35], the EC50 on human RORγ and at mouse RORγ was under 3 µM throughout.

With `Cc1ccc(NC(=O)C[C@H](CCC(=O)O)c2noc(-c3csc(CC(C)C)n3)c2C2CC2)c(Cl)c1` [Example E-36], the EC50 on human RORγ is over 3 µM; at mouse RORγ, under 3 µM.

Consider `Cc1cc(F)ccc1NC(=O)C[C@H](CCC(=O)O)c1noc(-c2cc(CCC(C)(C)C)on2)c1C1CC1` [Example E-37], for which the EC50 on human RORγ and on mouse RORγ was under 3 µM in each case.

For `Cc1cc(Cl)ccc1NC(=O)C[C@H](CCC(=O)O)c1noc(-c2cc(CCC(C)(C)C)on2)c1C1CC1` [Example E-38], the EC50 on human RORγ and at mouse RORγ was under 3 µM throughout.

For `Cc1ccc(NC(=O)C[C@H](CCC(=O)O)c2noc(-c3cc(C(F)(F)C4CCCC4)on3)c2C2CC2)c(Cl)c1` [Example E-39], the concentration giving a half-maximal response (EC50) at human RORγ and at mouse RORγ was under 3 µM throughout.

`Cc1ccc(NC(=O)C[C@H](CCC(=O)O)c2noc(-c3cc(C(F)(F)C(C)(C)C)on3)c2C2CC2)c(Cl)c1` [Example E-40]: the EC50 at human RORγ and on mouse RORγ was under 3 µM each time.

`Cc1ccc(NC(=O)C[C@H](CCC(=O)O)c2noc(-c3cnc(CC(C)C)s3)c2C2CC2)c(Cl)c1` [Example E-41, Sodium (S)-5-(2-chloro-4-methyl-phenylcarbamoyl)-4-[4-cyclopropyl-5-(2-isobutyl-thiazol-5-yl)-isoxazol-3-yl]-pentanoate]: the EC50 at human RORγ and on mouse RORγ was under 3 µM throughout.

Regarding `Cc1ccc(NC(=O)C[C@H](CCC(=O)O)c2noc(-c3cc(C4(C)CCCC4)on3)c2C2CC2)c(Cl)c1` [Example E-42], the EC50 on human RORγ and on mouse RORγ was under 3 µM in each case.

Consider `Cc1ccc(NC(=O)C[C@H](CCC(=O)O)c2noc(-c3cc(C(C)(C)C)on3)c2C2CC2)c(Cl)c1` [Example E-43], for which the EC50 on human RORγ and on mouse RORγ was under 3 µM each time.

As for `Cc1ccc(NC(=O)C[C@H](CCC(=O)O)c2noc(-c3cc(C4C(C)(C)C4(C)C)on3)c2C2CC2)c(Cl)c1` [Example E-44], the EC50 on human RORγ and on mouse RORγ was under 3 µM each time.

Turning to `Cc1cc(Cl)c(NC(=O)C[C@H](CCC(=O)O)c2noc(-c3cc(CCC(C)(C)C)on3)c2C2CC2)cc1F` [Example E-45], the EC50 at human RORγ and on mouse RORγ was under 3 µM in each case.

`Cc1ccc(NC(=O)C[C@H](CCC(=O)O)c2noc(-c3cc(C(F)(F)C(C)(C)C)on3)c2C2CC2)c(F)c1` [Example E-46]: the EC50 on human RORγ and at mouse RORγ was under 3 µM each time.

With `Cc1ccc(NC(=O)C[C@H](CCC(=O)O)c2noc(-c3cc(C4CC(F)(F)C4)on3)c2C2CC2)c(Cl)c1` [Example E-47], the 50% effective concentration (EC50) at human RORγ and at mouse RORγ was under 3 µM throughout.

Take `CC(C)(C)C(F)(F)c1cc(-c2onc([C@@H](CCC(=O)O)CC(=O)Nc3ccc(F)cc3Cl)c2C2CC2)no1` [Example E-48]: the EC50 on human RORγ and at mouse RORγ was under 3 µM in each case.

Consider `CC(C)(C)C(F)(F)c1cc(-c2onc([C@@H](CCC(=O)O)CC(=O)Nc3ccc(Cl)cc3F)c2C2CC2)no1` [Example E-49, Sodium (S)-5-(4-chloro-2-fluoro-phenylcarbamoyl)-4-[4′-cyclopropyl-5-(1,1-difluoro-2,2-dimethylpropyl)-[3,5′]biisoxazolyl-3′-yl]-pentanoate], for which the EC50 on human RORγ and on mouse RORγ was under 3 µM throughout.

On to `Cc1ccc(NC(=O)C[C@H](CCC(=O)O)c2noc(-c3cc(CCC(F)(F)F)on3)c2C2CC2)c(Cl)c1` [Example E-50], for which the EC50 on human RORγ and at mouse RORγ was under 3 µM in each case.
